Measurements as given in US20260109707A1, “HETEROBIFUNCTIONAL COMPOUNDS AND METHODS OF TREATING DISEASE” (Halda Therapeutics OpCo. Inc., priority 2022, published 2026).
Where two headings read alike, the source gives them in different places.

What was measured:
[1] = system: VCaP cells; assay: Cellular growth inhibition assay for VCaP cells (CellTiter-Glo, 72 hours); assay type: cell-based, human
Outline: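 Luminescent viability signal after 72 h of compound exposure gave GI50 values by four-parameter nonlinear regression. Compounds were added in 0.5% DMSO to cells plated 24 h earlier at 5000/well in DMEM containing 10% FBS.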

[2] = system: T-Rex 293 cell line SC3 cells lacking increased expression of androgen receptor protein; assay: Cellular growth inhibition assay, T-Rex 293 SC3 cells without doxycycline (CellTiter-Glo, 72 hours); assay type: cell-based; settings: T-Rex 293 cell line SC3 cells not exposed to doxycycline (lacking increased androgen receptor expression)
Outline: (§1)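 Growth inhibition is measured in an inducible AR-expressing T-Rex 293 clone, SC3, cultured with or without 10 ng/mL doxycycline in hormone-depleted medium. Test compounds are applied for 72 hours. GI50 values derive from CellTiter-Glo 2.0 signal fitted by four-parameter regression.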

[3] = system: T-Rex 293 cell line SC3 cells having increased expression of androgen receptor protein due to exposure to doxycycline; assay: Cellular growth inhibition assay, T-Rex 293 SC3 cells with doxycycline (CellTiter-Glo, 72 hours); assay type: cell-based; settings: T-Rex 293 SC3 cells with increased androgen receptor expression due to doxycycline (10 ng/mL)
Outline: as §1

| Compound | GI50 ([1]; Homo sapiens, VCaP, 72 h) | GI50 [1] | GI50 [2] | GI50 ([3]; 72 h) | GI50 ([2]; 72 h) | GI50 [3] |
| --- | --- | --- | --- | --- | --- | --- |
| Cc1sc2c(c1C)C(c1ccc(COC3CCC4(C3)CN(c3ccc(C(=O)N[C@H]5CC[C@H](Oc6ccc(C#N)c(Cl)c6)CC5)nn3)CCO4)cc1)=N[C@@H](C)c1nnc(C)n1-2 (stereo partly drawn) [I-557] | < 500 nM |  | < 500 nM | < 500 nM |  |  |
| Cc1sc2c(c1C)C(c1ccc(COC3CCC4(C3)CN(c3ccc(C(=O)N[C@H]5CC[C@H](Oc6ccc(C#N)c(Cl)c6)CC5)nn3)CCO4)cc1)=N[C@@H](C)c1nnc(C)n1-2 (stereo partly drawn) [I-558] |  | < 500 nM | < 500 nM |  |  | < 500 nM |
| Cc1sc2c(c1C)C(c1ccc(COC3CCC4(C3)CN(c3ccc(C(=O)N[C@H]5CC[C@H](Oc6ccc(C#N)c(Cl)c6)CC5)nn3)CCO4)cc1)=N[C@@H](C)c1nnc(C)n1-2 (stereo partly drawn) [I-559] |  | < 500 nM | < 500 nM |  |  | < 500 nM |
| Cc1sc2c(c1C)C(c1ccc(C3CN(C4CCN(c5ccc(C(=O)N[C@H]6CC[C@H](Oc7ccc(C#N)c(Cl)c7)CC6)nn5)CC4)C3)cc1)=N[C@@H](C)c1nnc(C)n1-2 [I-560] | 1500 to 3000 nM |  |  | < 500 nM | < 500 nM |  |
| Cc1sc2c(c1C)C(c1ccc(OCC3CC4(CCCN(c5ccc(C(=O)N[C@H]6CC[C@H](Oc7ccc(C#N)c(Cl)c7)CC6)nn5)C4)C3)cn1)=NC1(CC1)c1nnc(C)n1-2 (stereo partly drawn) [I-561] |  | > 3000 nM | 500 to 1500 nM | < 500 nM |  |  |
| Cc1sc2c(c1C)C(c1ccc(N3CC(CC4CCCN(c5ccc(C(=O)N[C@H]6CC[C@H](Oc7ccc(C#N)c(Cl)c7)CC6)nn5)C4)C3)cc1)=NC1(CC1)c1nnc(C)n1-2 (stereo partly drawn) [I-562] |  | > 3000 nM |  |  | < 500 nM | < 500 nM |
| Cc1sc2c(c1C)C(c1ccc(N3CCC4CN(c5ccc(C(=O)N[C@H]6CC[C@H](Oc7ccc(C#N)c(Cl)c7)CC6)nn5)CCC4C3)cc1)=NC1(CC1)c1nnc(C)n1-2 (stereo partly drawn) [I-563] |  | 500 to 1500 nM |  |  | < 500 nM | < 500 nM |
| Cc1sc2c(c1C)C(c1ccc(N3CCC4CN(c5ccc(C(=O)N[C@H]6CC[C@H](Oc7ccc(C#N)c(Cl)c7)CC6)nn5)CCC4C3)cc1)=NC1(CC1)c1nnc(C)n1-2 (stereo partly drawn) [I-564] |  | > 3000 nM | 500 to 1500 nM |  |  | < 500 nM |

Continued, in another order:

| GI50 ([1]; Homo sapiens, VCaP, 72 h) | GI50 [1] | Compound | GI50 [2] | GI50 ([3]; 72 h) | GI50 ([2]; 72 h) | GI50 [3] |
| --- | --- | --- | --- | --- | --- | --- |
| 500 to 1500 nM |  | Cc1sc2c(c1C)C(c1ccc(N3CCC4CN(c5ccc(C(=O)N[C@H]6CC[C@H](Oc7ccc(C#N)c(Cl)c7)CC6)nn5)CCC4C3)cc1)=N[C@@H](C)c1nnc(C)n1-2 (stereo partly drawn) [I-554] | > 3000 nM | < 500 nM |  |  |
| < 500 nM |  | Cc1sc2c(c1C)C(c1ccc(N3CC(C4CCN(c5ccc(C(=O)N[C@H]6CC[C@H](Oc7ccc(C#N)c(Cl)c7)CC6)nn5)C4)C3)cc1)=N[C@@H](C)c1nnc(C)n1-2 (stereo partly drawn) [I-555] |  | < 500 nM | < 500 nM |  |
|  | < 500 nM | Cc1sc2c(c1C)C(c1ccc(N3CC(C4CCN(c5ccc(C(=O)N[C@H]6CC[C@H](Oc7ccc(C#N)c(Cl)c7)CC6)nn5)C4)C3)cc1)=N[C@@H](C)c1nnc(C)n1-2 (stereo partly drawn) [I-556] | < 500 nM |  |  | < 500 nM |
|  | > 3000 nM | Cc1sc2c(c1C)C(c1ccc(N3CCC4CN(c5ccc(C(=O)N[C@H]6CC[C@H](Oc7ccc(C#N)c(Cl)c7)CC6)nn5)CCC4C3)cc1)=NC1(CC1)c1nnc(C)n1-2 (stereo partly drawn) [I-565] | < 500 nM |  |  | < 500 nM |
| < 500 nM |  | COC[C@@H]1N=C(c2ccc(N3CCC4(CC3)CCN(c3ccc(C(=O)N[C@H]5CC[C@H](Oc6ccc(C#N)c(Cl)c6)CC5)nn3)C4)cc2)c2c(sc(C)c2C)-n2c(C)nnc21 [I-566] |  | < 500 nM | < 500 nM |  |
| < 500 nM |  | COCC[C@@H]1N=C(c2ccc(N3CCC4(CC3)CCN(c3ccc(C(=O)N[C@H]5CC[C@H](Oc6ccc(C#N)c(Cl)c6)CC5)nn3)C4)cc2)c2c(sc(C)c2C)-n2c(C)nnc21 [I-567] |  | < 500 nM | < 500 nM |  |
| 1500 to 3000 nM |  | COC[C@@H]1N=C(c2ccc(N3CCC4(CCCN(c5ccc(C(=O)N[C@H]6CC[C@H](Oc7ccc(C#N)c(Cl)c7)CC6)nn5)C4)CC3)cc2)c2c(sc(C)c2C)-n2c(C)nnc21 [I-568] |  | < 500 nM | < 500 nM |  |
